In brackets after ≈: the same amount, converted by molar mass.
How the values were obtained:
[1] = clinical pathology (serum clinical chemistry) in mice; format: in vivo; details: CD-1 mice, 20 mg/kg intravenously daily for 9 days, sera day 10
Experimental: 20-day-old CD-1 mice were divided into a vehicle control group (5 mice) and a treatment group (5 mice). Samples of glycopeptide antibiotics were administered at 20 mg/kg intravenously daily for 9 days.

[2] = test system: Escherichia coli; assay: in vitro antibacterial evaluation, MIC by broth dilution; format: cell-based; details: 18 hours at 35° C.
How it was run: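 MIC is the lowest antibiotic concentration (tested 64-0.06 μg/mL) preventing growth of a 5×10^5 CFU/mL inoculum. Determined by broth dilution in Mueller-Hinton II medium following NCCLS standard M7-A2.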

[3] = anatomic pathology (histopathology of heart and kidney) in mice; format: in vivo; details: CD-1 mice, 20 mg/kg intravenously daily for 9 days, necropsy day 10, microscopic histopathology
Experimental: Samples of tissues from necropsied mice were formalin-fixed, paraffin-embedded, sectioned, stained with hematoxylin and eosin, and examined microscopically. Histopathologic findings were recorded. These findings were subjectively graded on a scale corresponding to slight, mild, moderate, marked and severe as compared to untreated controls.

[4] = test system: Staphylococcus sp.; assay: in vitro antibacterial evaluation, MIC by broth dilution; format: cell-based; details: broth dilution, 18 hours at 35° C.; for MIC Staphylococcus aureus (ATCC 29213): strain ATCC 29213; for MIC Staphylococcus aureus (GC 1131): strain GC 1131; for MIC Staphylococcus aureus (GC 3051): strain GC 3051; for MIC Staphylococcus aureus (GC 3053): strain GC 3053; for MIC Staphylococcus aureus (GC 4541): strain GC 4541; for MIC Staphylococcus aureus (GC 4542): strain GC 4542; for MIC Staphylococcus aureus-SMITH (GC 4543): strain GC 4543; for MIC Staphylococcus aureus (GC 4544): strain GC 4544; for MIC Staphylococcus aureus (GC 4545): strain GC 4545; for MIC Staphylococcus haemolyticus (GC 4546): strain GC 4546; for MIC Coagulase Negative Staphylococcus (GC 4547): strain GC 4547; for MIC Coagulase Negative Staphylococcus (GC 4548): strain GC 4548; for MIC Coagulase Negative Staphylococcus (GC 4549): strain GC 4549; for MIC Coagulase Negative Staphylococcus (GC 4551): strain GC 4551; for MIC Coagulase Negative Staphylococcus (GC 6257): strain GC 6257
How it was run: (§1)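 Step 1: dilute antibiotic across 64-0.06 μg/mL in Muller-Hinton II […]. Step 2: inoculate at 5×10^5 CFU/mL.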

[5] = test system: Streptococcus sp.; assay: as above; format: cell-based; details: broth dilution, 18 hours at 35° C.
How it was run: as §1

[6] = test system: Enterococcus sp.; assay: as above; format: cell-based; details: broth dilution, 18 hours at 35° C.
How it was run: as §1

[7] = Enterococcus faecalis (ATCC 29212)
[8] = Enterococcus faecalis (GC 4552)
[9] = Enterococcus faecalis (GC 4553)
[10] = Enterococcus faecalis (GC 4554)
[11] = Enterococcus faecalis (GC 6189)

CC(c1ccccc1)C1NC(=O)CNC(=O)C(CO)NC(=O)C(C(O)C2CN(CCCCCCCCCCCCO)C(=N)N2C2OC(CO)C(O)C(O)C2O)NC(=O)C(C(O)C2CNC(=N)N2)NC(=O)C(Cc2ccc(OC3OC(CO)C(OC4OC(CO)C(O)C(O)C4O)C(O)C3O)cc2)NC1=O (stereo not drawn) [Example 61, Cyclo[glycyl-β-methylphenylalanyl-O-(4-O-hexopyranosylhexopyranosyl)tyrosl-3-(2-iminoimidazolidin-4-yl)seryl-3-[3-hexopyranosyl-1-(12-hydroxydodecyl)-2-iminoimidazolidin-4-yl]-serylseryl]]
Clinical Chemistry (Day 10) % of Control, BUN [1]: +157% | Clinical Chemistry (Day 10) % of Control, Creatinine [1]: +122% | MIC Escherichia coli (ATCC 25922) [2]: 128 µg/mL (≈ 86.5 µM) | MIC Escherichia coli (GC 4559) [2]: 128 µg/mL (≈ 86.5 µM) | MIC Escherichia coli (GC 4560) [2]: 8 µg/mL (≈ 5.41 µM) | Anatomical Pathology (Day 10), Heart [3]: 0 | Anatomical Pathology (Day 10), Kidney [3]: +++ | MIC Staphylococcus aureus (ATCC 29213) [4]: >128 µg/mL | MIC Staphylococcus aureus (GC 1131) [4]: >128 µg/mL | MIC Staphylococcus aureus (GC 3051) [4]: >128 µg/mL | MIC Staphylococcus aureus (GC 3053) [4]: 128 µg/mL (≈ 86.5 µM) | MIC Staphylococcus aureus (GC 4541) [4]: >128 µg/mL | MIC Staphylococcus aureus (GC 4542) [4]: >128 µg/mL | MIC Staphylococcus aureus-SMITH (GC 4543) [4]: >128 µg/mL | MIC Staphylococcus aureus (GC 4544) [4]: >128 µg/mL | MIC Staphylococcus aureus (GC 4545) [4]: >128 µg/mL | MIC Staphylococcus haemolyticus (GC 4546) [4]: >128 µg/mL | MIC Coagulase Negative Staphylococcus (GC 4547) [4]: 128 µg/mL (≈ 86.5 µM) | MIC Coagulase Negative Staphylococcus (GC 4548) [4]: >128 µg/mL | MIC Coagulase Negative Staphylococcus (GC 4549) [4]: 128 µg/mL (≈ 86.5 µM) | MIC Coagulase Negative Staphylococcus (GC 4551) [4]: >128 µg/mL | MIC Coagulase Negative Staphylococcus (GC 6257) [4]: >128 µg/mL | MIC Streptococcus agalactiae (GC 4564) [5]: 128 µg/mL (≈ 86.5 µM) | MIC Streptococcus pneumoniae (ATCC 6301) [5]: 128 µg/mL (≈ 86.5 µM) | MIC Streptococcus pneumoniae (GC 1894) [5]: 64 µg/mL (≈ 43.3 µM) | MIC Streptococcus pneumoniae (GC 4565) [5]: 64 µg/mL (≈ 43.3 µM) | MIC Streptococcus pyogenes (GC 4563) [5]: 128 µg/mL (≈ 86.5 µM) | MIC Streptococcus pneumoniae (ATCC 6301) ([5]; strain ATCC 6301): 128 µg/mL (≈ 86.5 µM) | MIC Streptococcus pneumoniae (GC 1894) ([5]; strain GC 1894): 64 µg/mL (≈ 43.3 µM) | MIC Streptococcus pyogenes (GC 4563) ([5]; strain GC 4563): 128 µg/mL (≈ 86.5 µM) | MIC Streptococcus agalactiae (GC 4564) ([5]; strain GC 4564): 128 µg/mL (≈ 86.5 µM) | MIC Streptococcus pneumoniae (GC 4565) ([5]; strain GC 4565): 64 µg/mL (≈ 43.3 µM) | MIC Enterococcus avium (GC 4558) ([6]; Enterococcus avium (GC 4558)): 64 µg/mL (≈ 43.3 µM) | MIC Enterococcus faecalis (ATCC 29212) [6, 7]: 128 µg/mL (≈ 86.5 µM) | MIC Enterococcus faecalis (GC 4552) [6, 8]: 128 µg/mL (≈ 86.5 µM) | MIC Enterococcus faecalis (GC 4553) [6, 9]: 128 µg/mL (≈ 86.5 µM) | MIC Enterococcus faecalis (GC 4554) [6, 10]: 128 µg/mL (≈ 86.5 µM) | MIC Enterococcus faecalis (GC 6189) [6, 11]: 128 µg/mL (≈ 86.5 µM) | MIC Enterococcus faecium (GC 2243) ([6]; Enterococcus faecium (GC 2243)): >128 µg/mL | MIC Enterococcus faecium (GC 4556) ([6]; Enterococcus faecium (GC 4556)): 128 µg/mL (≈ 86.5 µM) | MIC Enterococcus faecium (GC 4557) ([6]; Enterococcus faecium (GC 4557)): 128 µg/mL (≈ 86.5 µM) | MIC Enterococcus avium (GC 4558) [6]: 64 µg/mL (≈ 43.3 µM) | MIC Enterococcus faecalis (ATCC 29212) [6]: 128 µg/mL (≈ 86.5 µM) | MIC Enterococcus faecalis (GC 2242) [6]: 128 µg/mL (≈ 86.5 µM) | MIC Enterococcus faecalis (GC 2691) [6]: 128 µg/mL (≈ 86.5 µM) | MIC Enterococcus faecalis (GC 3059) [6]: 128 µg/mL (≈ 86.5 µM) | MIC Enterococcus faecalis (GC 4552) [6]: 128 µg/mL (≈ 86.5 µM) | MIC Enterococcus faecalis (GC 4553) [6]: 128 µg/mL (≈ 86.5 µM) | MIC Enterococcus faecalis (GC 4554) [6]: 128 µg/mL (≈ 86.5 µM) | MIC Enterococcus faecalis (GC 6189) [6]: 128 µg/mL (≈ 86.5 µM) | MIC Enterococcus faecium (GC 2243) [6]: >128 µg/mL | MIC Enterococcus faecium (GC 4556) [6]: 128 µg/mL (≈ 86.5 µM) | MIC Enterococcus faecium (GC 4557) [6]: 128 µg/mL (≈ 86.5 µM) | MIC Enterococcus faecalis (GC 2242) ([6]; strain GC 2242): 128 µg/mL (≈ 86.5 µM) | MIC Enterococcus faecalis (GC 2691) ([6]; strain GC 2691): 128 µg/mL (≈ 86.5 µM) | MIC Enterococcus faecalis (GC 3059) ([6]; strain GC 3059): 128 µg/mL (≈ 86.5 µM)

CC(c1ccccc1)C1NC(=O)CNC(=O)C(CO)NC(=O)C(C(O)C2CN(CCCCCCCCCCC(=O)O)C(=N)N2C2OC(CO)C(O)C(O)C2O)NC(=O)C(C(O)C2CNC(=N)N2)NC(=O)C(Cc2ccc(OC3OC(CO)C(OC4OC(CO)C(O)C(O)C4O)C(O)C3O)cc2)NC1=O (stereo not drawn) [Example 72, Cyclo[glycyl-β-methylphenylalanyl-O-(4-O-hexopyranosylhexopyranosyl)tyrosyl-3-(2-iminoimidazolidin-4-yl)seryl-3-[1-(10-carboxydecyl)-3-hexopyranosyl-2-iminoimidazolidin-4-yl]serylseryl]]
Clinical Chemistry (Day 10) % of Control, BUN [1]: +122% | MIC Escherichia coli (ATCC 25922) [2]: >128 µg/mL | MIC Escherichia coli (GC 4559) [2]: >128 µg/mL | MIC Escherichia coli (GC 4560) [2]: 32 µg/mL (≈ 21.6 µM) | Anatomical Pathology (Day 10), Heart [3]: 0 | Anatomical Pathology (Day 10), Kidney [3]: ++ | MIC Staphylococcus aureus (ATCC 29213) [4]: >128 µg/mL | MIC Staphylococcus aureus (GC 1131) [4]: >128 µg/mL | MIC Staphylococcus aureus (GC 3051) [4]: >128 µg/mL | MIC Staphylococcus aureus (GC 3053) [4]: >128 µg/mL | MIC Staphylococcus aureus (GC 4541) [4]: >128 µg/mL | MIC Staphylococcus aureus (GC 4542) [4]: >128 µg/mL | MIC Staphylococcus aureus-SMITH (GC 4543) [4]: >128 µg/mL | MIC Staphylococcus aureus (GC 4544) [4]: >128 µg/mL | MIC Staphylococcus aureus (GC 4545) [4]: >128 µg/mL | MIC Staphylococcus haemolyticus (GC 4546) [4]: >128 µg/mL | MIC Coagulase Negative Staphylococcus (GC 4547) [4]: >128 µg/mL | MIC Coagulase Negative Staphylococcus (GC 4548) [4]: >128 µg/mL | MIC Coagulase Negative Staphylococcus (GC 4549) [4]: >128 µg/mL | MIC Coagulase Negative Staphylococcus (GC 4551) [4]: >128 µg/mL | MIC Coagulase Negative Staphylococcus (GC 6257) [4]: >128 µg/mL | MIC Streptococcus agalactiae (GC 4564) [5]: 128 µg/mL (≈ 86.5 µM) | MIC Streptococcus pneumoniae (ATCC 6301) [5]: 64 µg/mL (≈ 43.3 µM) | MIC Streptococcus pneumoniae (GC 1894) [5]: 16 µg/mL (≈ 10.8 µM) | MIC Streptococcus pneumoniae (GC 4565) [5]: 64 µg/mL (≈ 43.3 µM) | MIC Streptococcus pyogenes (GC 4563) [5]: 64 µg/mL (≈ 43.3 µM) | MIC Streptococcus pneumoniae (ATCC 6301) ([5]; strain ATCC 6301): 64 µg/mL (≈ 43.3 µM) | MIC Streptococcus pneumoniae (GC 1894) ([5]; strain GC 1894): 16 µg/mL (≈ 10.8 µM) | MIC Streptococcus pyogenes (GC 4563) ([5]; strain GC 4563): 64 µg/mL (≈ 43.3 µM) | MIC Streptococcus agalactiae (GC 4564) ([5]; strain GC 4564): 128 µg/mL (≈ 86.5 µM) | MIC Streptococcus pneumoniae (GC 4565) ([5]; strain GC 4565): 64 µg/mL (≈ 43.3 µM) | MIC Enterococcus avium (GC 4558) ([6]; Enterococcus avium (GC 4558)): 64 µg/mL (≈ 43.3 µM) | MIC Enterococcus faecalis (ATCC 29212) [6, 7]: >128 µg/mL | MIC Enterococcus faecalis (GC 4552) [6, 8]: >128 µg/mL | MIC Enterococcus faecalis (GC 4553) [6, 9]: 64 µg/mL (≈ 43.3 µM) | MIC Enterococcus faecalis (GC 4554) [6, 10]: >128 µg/mL | MIC Enterococcus faecalis (GC 6189) [6, 11]: >128 µg/mL | MIC Enterococcus faecium (GC 2243) ([6]; Enterococcus faecium (GC 2243)): >128 µg/mL | MIC Enterococcus faecium (GC 4556) ([6]; Enterococcus faecium (GC 4556)): >128 µg/mL | MIC Enterococcus faecium (GC 4557) ([6]; Enterococcus faecium (GC 4557)): 128 µg/mL (≈ 86.5 µM) | MIC Enterococcus avium (GC 4558) [6]: 64 µg/mL (≈ 43.3 µM) | MIC Enterococcus faecalis (ATCC 29212) [6]: >128 µg/mL | MIC Enterococcus faecalis (GC 2242) [6]: >128 µg/mL | MIC Enterococcus faecalis (GC 2691) [6]: >128 µg/mL | MIC Enterococcus faecalis (GC 3059) [6]: >128 µg/mL | MIC Enterococcus faecalis (GC 4552) [6]: >128 µg/mL | MIC Enterococcus faecalis (GC 4553) [6]: 64 µg/mL (≈ 43.3 µM) | MIC Enterococcus faecalis (GC 4554) [6]: >128 µg/mL | MIC Enterococcus faecalis (GC 6189) [6]: >128 µg/mL | MIC Enterococcus faecium (GC 2243) [6]: >128 µg/mL | MIC Enterococcus faecium (GC 4556) [6]: >128 µg/mL | MIC Enterococcus faecium (GC 4557) [6]: 128 µg/mL (≈ 86.5 µM) | MIC Enterococcus faecalis (GC 2242) ([6]; strain GC 2242): >128 µg/mL | MIC Enterococcus faecalis (GC 2691) ([6]; strain GC 2691): >128 µg/mL | MIC Enterococcus faecalis (GC 3059) ([6]; strain GC 3059): >128 µg/mL
